Measurements as given in PubChem BioAssay (NCI).
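Each compound was tested at five concentrations against cells in 96-well plates for 48 hours. TGI marks complete inhibition of growth.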

How the values were obtained:
Experiment in all cases: NCI anticancer screen, dose series, 48 h
U251 CNS = test system: U251 CNS
KM20L2 colon = test system: KM20L2 colon
SNB-75 CNS = test system: SNB-75 CNS
HOP-18 NSCLC = test system: HOP-18 NSCLC
OVCAR-4 ovarian = test system: OVCAR-4 ovarian
SK-OV-3 ovarian = test system: SK-OV-3 ovarian
SK-MEL-2 melanoma = test system: SK-MEL-2 melanoma
OVCAR-8 ovarian = test system: OVCAR-8 ovarian
OVCAR-3 ovarian = test system: OVCAR-3 ovarian
UO-31 renal = test system: UO-31 renal
NCI-H522 lung = test system: NCI-H522 lung
786-0 renal = test system: 786-0 renal
HCT-15 colon = test system: HCT-15 colon
DLD-1 colon = test system: DLD-1 colon
CAKI-1 renal = test system: CAKI-1 renal
SW-620 colon = test system: SW-620 colon
SN12C renal = test system: SN12C renal
M19-MEL melanoma = test system: M19-MEL melanoma
COLO 205 colon = test system: COLO 205 colon
MOLT-4 leukemia = test system: MOLT-4 leukemia
SNB-78 CNS = test system: SNB-78 CNS
SF-539 CNS = test system: SF-539 CNS
SF-295 CNS = test system: SF-295 CNS
SK-MEL-28 melanoma = test system: SK-MEL-28 melanoma
DMS 273 small cell lung = test system: DMS 273 small cell lung
DMS 114 small cell lung = test system: DMS 114 small cell lung
KM12 colon = test system: KM12 colon
HOP-62 NSCLC = test system: HOP-62 NSCLC
NCI-H460 lung = test system: NCI-H460 lung
NCI-H23 lung = test system: NCI-H23 lung
K-562 leukemia = test system: K-562 leukemia
M14 melanoma = test system: M14 melanoma
MALME-3M melanoma = test system: MALME-3M melanoma
HL-60(TB) leukemia = test system: HL-60(TB) leukemia
OVCAR-5 ovarian = test system: OVCAR-5 ovarian
HCC-2998 colon = test system: HCC-2998 colon
UACC-257 melanoma = test system: UACC-257 melanoma
SR leukemia = test system: SR leukemia
RXF 393 renal = test system: RXF 393 renal
HT29 colon = test system: HT29 colon
IGROV1 ovarian = test system: IGROV1 ovarian
CCRF-CEM leukemia = test system: CCRF-CEM leukemia
SK-MEL-5 melanoma = test system: SK-MEL-5 melanoma
LXFL 529 NSCLC = test system: LXFL 529 NSCLC
SNB-19 CNS = test system: SNB-19 CNS
NCI-H226 lung = test system: NCI-H226 lung
A549 NSCLC = test system: A549 NSCLC
HCT-116 colon = test system: HCT-116 colon
SF-268 CNS = test system: SF-268 CNS
RPMI-8226 leukemia = test system: RPMI-8226 leukemia
ACHN renal = test system: ACHN renal
EKVX NSCLC = test system: EKVX NSCLC
UACC-62 melanoma = test system: UACC-62 melanoma
TK-10 renal = test system: TK-10 renal
HOP-92 NSCLC = test system: HOP-92 NSCLC
A498 renal = test system: A498 renal
LOX IMVI melanoma = test system: LOX IMVI melanoma

COC1OC(C)C(OC(=O)C(C)(C)C)C(OS(=O)(=O)c2ccc(C)cc2)C1OS(=O)(=O)c1ccc(C)cc1 (configuration not stated)
TGI (U251 CNS): > 100 µM
TGI (KM20L2 colon): > 100 µM
TGI (SNB-75 CNS): > 100 µM
TGI (HOP-18 NSCLC): > 100 µM
TGI (OVCAR-4 ovarian): > 100 µM
TGI (SK-OV-3 ovarian): > 100 µM
TGI (SK-MEL-2 melanoma): > 100 µM
TGI (OVCAR-8 ovarian): > 100 µM
TGI (OVCAR-3 ovarian): > 100 µM
TGI (UO-31 renal): > 100 µM
TGI (NCI-H522 lung): > 100 µM
TGI (786-0 renal): > 100 µM
TGI (HCT-15 colon): > 100 µM
TGI (DLD-1 colon): > 100 µM
TGI (CAKI-1 renal): > 100 µM
TGI (SW-620 colon): > 100 µM
TGI (SN12C renal): > 100 µM
TGI (M19-MEL melanoma): > 100 µM
TGI (COLO 205 colon): > 100 µM
TGI (MOLT-4 leukemia): > 100 µM
TGI (SNB-78 CNS): > 100 µM
TGI (SF-539 CNS): > 100 µM
TGI (SF-295 CNS): > 100 µM
TGI (SK-MEL-28 melanoma): > 100 µM
TGI (DMS 273 small cell lung): > 100 µM
TGI (DMS 114 small cell lung): > 100 µM
TGI (KM12 colon): > 100 µM
TGI (HOP-62 NSCLC): > 100 µM
TGI (NCI-H460 lung): > 100 µM
TGI (NCI-H23 lung): > 100 µM
TGI (K-562 leukemia): > 100 µM
TGI (M14 melanoma): > 100 µM
TGI (MALME-3M melanoma): > 100 µM
TGI (HL-60(TB) leukemia): > 100 µM
TGI (OVCAR-5 ovarian): > 100 µM
TGI (HCC-2998 colon): > 100 µM
TGI (UACC-257 melanoma): > 100 µM
TGI (SR leukemia): > 100 µM
TGI (RXF 393 renal): > 100 µM
TGI (HT29 colon): > 100 µM
TGI (IGROV1 ovarian): > 100 µM
TGI (CCRF-CEM leukemia): > 100 µM
TGI (SK-MEL-5 melanoma): > 100 µM
TGI (LXFL 529 NSCLC): > 100 µM
TGI (SNB-19 CNS): > 100 µM
TGI (NCI-H226 lung): > 100 µM
TGI (A549 NSCLC): > 100 µM
TGI (HCT-116 colon): > 100 µM
TGI (SF-268 CNS): > 100 µM
TGI (RPMI-8226 leukemia): > 100 µM
TGI (ACHN renal): > 100 µM

C=C1CC(c2ccc(O)c(OC)c2)Oc2c(OC)cccc21 (configuration not stated)
TGI (EKVX NSCLC): > 100 µM
TGI (U251 CNS): > 100 µM
TGI (KM20L2 colon): > 100 µM
TGI (UACC-62 melanoma): > 100 µM
TGI (SNB-75 CNS): > 100 µM
TGI (HOP-18 NSCLC): > 100 µM
TGI (OVCAR-4 ovarian): > 100 µM
TGI (SK-OV-3 ovarian): > 100 µM
TGI (OVCAR-8 ovarian): > 100 µM
TGI (OVCAR-3 ovarian): > 100 µM
TGI (UO-31 renal): > 100 µM
TGI (NCI-H522 lung): 49.5 µM
TGI (786-0 renal): > 100 µM
TGI (HCT-15 colon): > 100 µM
TGI (DLD-1 colon): > 100 µM
TGI (CAKI-1 renal): > 100 µM
TGI (SW-620 colon): > 100 µM
TGI (SN12C renal): > 100 µM
TGI (M19-MEL melanoma): > 100 µM
TGI (COLO 205 colon): > 100 µM
TGI (TK-10 renal): > 100 µM
TGI (MOLT-4 leukemia): > 100 µM
TGI (SNB-78 CNS): > 100 µM
TGI (HOP-92 NSCLC): 53.1 µM
TGI (SF-539 CNS): 52.2 µM
TGI (SF-295 CNS): > 100 µM
TGI (SK-MEL-28 melanoma): > 100 µM
TGI (DMS 273 small cell lung): 55.2 µM
TGI (DMS 114 small cell lung): 56.1 µM
TGI (KM12 colon): > 100 µM
TGI (HOP-62 NSCLC): > 100 µM
TGI (NCI-H460 lung): > 100 µM
TGI (NCI-H23 lung): > 100 µM
TGI (K-562 leukemia): 64.8 µM
TGI (M14 melanoma): > 100 µM
TGI (HL-60(TB) leukemia): 49.9 µM
TGI (OVCAR-5 ovarian): > 100 µM
TGI (HCC-2998 colon): > 100 µM
TGI (UACC-257 melanoma): > 100 µM
TGI (SR leukemia): 61.3 µM
TGI (HT29 colon): > 100 µM
TGI (IGROV1 ovarian): > 100 µM
TGI (CCRF-CEM leukemia): 93.7 µM
TGI (SK-MEL-5 melanoma): > 100 µM
TGI (LXFL 529 NSCLC): > 100 µM
TGI (SNB-19 CNS): > 100 µM
TGI (NCI-H226 lung): > 100 µM
TGI (A549 NSCLC): > 100 µM
TGI (HCT-116 colon): > 100 µM
TGI (SF-268 CNS): > 100 µM
TGI (ACHN renal): > 100 µM

O=C1c2ccccc2C2(O)Nc3c(ccc4ccccc34)C12O (configuration not stated)
TGI (EKVX NSCLC): > 100 µM
TGI (U251 CNS): > 100 µM
TGI (A498 renal): > 100 µM
TGI (KM20L2 colon): > 100 µM
TGI (UACC-62 melanoma): > 100 µM
TGI (SNB-75 CNS): > 100 µM
TGI (HOP-18 NSCLC): > 100 µM
TGI (OVCAR-4 ovarian): > 100 µM
TGI (SK-OV-3 ovarian): > 100 µM
TGI (SK-MEL-2 melanoma): > 100 µM
TGI (LOX IMVI melanoma): > 100 µM
TGI (OVCAR-8 ovarian): > 100 µM
TGI (OVCAR-3 ovarian): > 100 µM
TGI (UO-31 renal): > 100 µM
TGI (NCI-H522 lung): > 100 µM
TGI (786-0 renal): > 100 µM
TGI (HCT-15 colon): > 100 µM
TGI (DLD-1 colon): > 100 µM
TGI (CAKI-1 renal): > 100 µM
TGI (SW-620 colon): > 100 µM
TGI (SN12C renal): > 100 µM
TGI (M19-MEL melanoma): > 100 µM
TGI (COLO 205 colon): > 100 µM
TGI (TK-10 renal): > 100 µM
TGI (MOLT-4 leukemia): > 100 µM
TGI (SNB-78 CNS): > 100 µM
TGI (SF-539 CNS): > 100 µM
TGI (SF-295 CNS): > 100 µM
TGI (SK-MEL-28 melanoma): > 100 µM
TGI (DMS 273 small cell lung): > 100 µM
TGI (DMS 114 small cell lung): > 100 µM
TGI (KM12 colon): > 100 µM
TGI (HOP-62 NSCLC): > 100 µM
TGI (NCI-H460 lung): > 100 µM
TGI (NCI-H23 lung): > 100 µM
TGI (K-562 leukemia): > 100 µM
TGI (M14 melanoma): > 100 µM
TGI (MALME-3M melanoma): > 100 µM
TGI (HL-60(TB) leukemia): > 100 µM
TGI (OVCAR-5 ovarian): > 100 µM
TGI (HCC-2998 colon): > 100 µM
TGI (UACC-257 melanoma): > 100 µM
TGI (RXF 393 renal): > 100 µM
TGI (HT29 colon): > 100 µM
TGI (IGROV1 ovarian): > 100 µM
TGI (CCRF-CEM leukemia): > 100 µM
TGI (SK-MEL-5 melanoma): > 100 µM
TGI (LXFL 529 NSCLC): > 100 µM
TGI (SNB-19 CNS): > 100 µM
TGI (NCI-H226 lung): > 100 µM
TGI (A549 NSCLC): > 100 µM
TGI (HCT-116 colon): > 100 µM
TGI (SF-268 CNS): > 100 µM
TGI (RPMI-8226 leukemia): > 100 µM
TGI (ACHN renal): > 100 µM
